Source: paper PMC8286840, “Identifying SARS-CoV-2 antiviral compounds by screening for small molecule inhibitors of Nsp3 papain-like protease” (Biochemical Journal, 2021)
Counter-ions that a name gives are not always drawn. Like-named read-outs stand apart in the source and are kept apart here. Where a SMILES comes first, the peptide text is derived from it. Bridges are numbered along the chain shown (N, C = ends). [ ]: non-standard residue; d: D form. 2Nal = N[C@@H](Cc1ccc2ccccc2c1)C(=O)O; Lys(iPr) = CC(C)NCCCC[C@H](N)C(=O)O

Legend:
[1] = biological target: T1, SARS-CoV-2 PLpro (nsp3 1564–1878) (Severe acute respiratory syndrome coronavirus 2, UniProt P0DTD1); test: biochemical; parameters: FRET-quenched peptide (Pro3) cleavage by PLpro, 10 min pre-incubation, slope over 20 min, normalised to no-compound control; conditions: high concentration screen, read-out: % of control remaining
[2] = biological target: T1, SARS-CoV-2 PLpro (nsp3 1564–1878); test: biochemical; parameters: FRET-quenched peptide (Pro3) cleavage by PLpro, 10 min pre-incubation, slope over 20 min, normalised to no-compound control; conditions: low concentration screen, read-out: % of control remaining

**Q.** How did the remaining activity at 3.75 µM ([1]; Well no.=716) turn out when `CC(C)n1cnc2c(NCc3ccccc3)nc(NCCO)nc21` [N9-Isopropylolomoucine] was run?
**A.** 98.5%

**Q.** And the remaining activity at 1.25 µM ([2]; Well no.=716)?
**A.** 96.5%

**Q.** What does the source list for `NC1(C(=O)O)CCCCC1` [1-Amino-1-cyclohexanecarboxylic acid hydrochloride]?
**A.** remaining activity at 3.75 µM ([1]; Well no.=160): 102%; remaining activity at 1.25 µM ([2]; Well no.=160): 100%

**Q.** What does the source list for `O=c1[nH]c2ccccc2n1C1CCN(CCCC(c2ccc(F)cc2)c2ccc(F)cc2)CC1` [Pimozide]?
**A.** remaining activity at 3.75 µM ([1]; Well no.=1094): 95%; remaining activity at 3.75 µM ([1]; Well no.=1595): 95.7%; remaining activity at 1.25 µM ([2]; Well no.=1094): 93.3%; remaining activity at 1.25 µM ([2]; Well no.=1595): 99.2%

**Q.** `CC(C)NCCCC[C@H](NC(=O)[C@H]1CCC(=O)N[C@@H](Cc2ccccc2)C(=O)N[C@@H](Cc2ccc(O)cc2)C(=O)N[C@@H](CCCCNC(C)C)C(=O)N[C@H](CCCN=C(N)N)C(=O)N[C@@H](Cc2ccc3ccccc3c2)C(=O)NCC(=O)N1)C(N)=O` [LY2510924] (FY[Lys(iPr)][dR][2Nal]G[dE][Lys(iPr)]-NH2; lactam N-7) was tested. Which remaining activity at 3.75 µM ([1]; Well no.=8513) did it give?
**A.** 102%

**Q.** And the remaining activity at 1.25 µM ([2]; Well no.=8513)?
**A.** 101%

**Q.** Which remaining activity at 3.75 µM ([1]; Well no.=4621) does the source give for `COc1ccc(C2=N[C@@H](c3ccc(Cl)cc3)[C@@H](c3ccc(Cl)cc3)N2C(=O)N2CCNC(=O)C2)c(OC(C)C)c1` [Nutlin-3] here?
**A.** 108%

**Q.** What about the remaining activity at 1.25 µM ([2]; Well no.=4621) of the same compound?
**A.** 104%

**Q.** With `Nc1cccc(-c2cc3c(Oc4cccc(O)c4)ncnc3[nH]2)c1` [TWS119] as the compound, how does the remaining activity at 3.75 µM ([1]; Well no.=4612) read?
**A.** 99.7%

**Q.** What about the remaining activity at 1.25 µM ([2]; Well no.=4612) of the same compound?
**A.** 100%

**Q.** Which results are given for `CCC12C=CCN3CC[C@@]4(c5ccc(OC)cc5N(C)[C@H]4[C@@](O)(C(=O)OC)[C@@H]1OC(C)=O)[C@@H]32` (stereo partly drawn) [Vindoline]?
**A.** remaining activity at 3.75 µM ([1]; Well no.=3761): 96.6%; remaining activity at 1.25 µM ([2]; Well no.=3761): 96.2%

**Q.** Which results are given for `N[C@@H](Cc1cc(I)c(Oc2cc(I)c(O)c(I)c2)c(I)c1)C(=O)O` [L-thyroxine]?
**A.** remaining activity at 3.75 µM ([1]; Well no.=2298): 88.2%; remaining activity at 3.75 µM ([1]; Well no.=7299): 105%; remaining activity at 1.25 µM ([2]; Well no.=2298): 86.3%; remaining activity at 1.25 µM ([2]; Well no.=7299): 102%

**Q.** Which remaining activity at 3.75 µM ([1]; Well no.=3446) does the source give for `COc1ccc2c(c1OC)C(=O)O[C@@H]2[C@H]1c2c(cc3c(c2OC)OCO3)CCN1C` (racemic) here?
**A.** 90.7%

**Q.** And the remaining activity at 1.25 µM ([2]; Well no.=3446)?
**A.** 92.3%

**Q.** Which remaining activity at 3.75 µM ([1]; Well no.=3795) does the source give for `COC(=O)[C@H]1[C@H]2C[C@H]3c4[nH]c5ccccc5c4CCN3C[C@@H]2CC[C@@H]1O` [Corynanthine] here?
**A.** 103%

**Q.** And the remaining activity at 1.25 µM ([2]; Well no.=3795)?
**A.** 97.4%

**Q.** Which results are given for `c1ccc(NCc2ccc(CNc3ccccn3)cc2)nc1` [WZ 811]?
**A.** remaining activity at 3.75 µM ([1]; Well no.=4843): 102%; remaining activity at 1.25 µM ([2]; Well no.=4843): 100%

**Q.** For `CCCN(CCC)C1CCc2cccc(O)c2C1` (racemic), which remaining activity at 3.75 µM ([1]; Well no.=470) is on record?
**A.** 98.3%

**Q.** And the remaining activity at 1.25 µM ([2]; Well no.=470)?
**A.** 99.9%

**Q.** Which remaining activity at 3.75 µM ([1]; Well no.=3102) does the source give for `C[C@H]1CC[C@@]2(OC1)O[C@H]1C[C@H]3[C@@H]4CC[C@@H]5C[C@@H](O)CC[C@]5(C)[C@H]4CC[C@]3(C)[C@H]1[C@@H]2C` [Sarsasapogenin] here?
**A.** 92.8%

**Q.** What about the remaining activity at 1.25 µM ([2]; Well no.=3102) of the same compound?
**A.** 95%

**Q.** Which remaining activity at 3.75 µM ([1]; Well no.=2355) does the source give for `O=C1NC(=O)C(c2c[nH]c3ccccc23)=C1c1c[nH]c2ccccc12` [Bisindolylmaleimide IV] here?
**A.** 99.7%

**Q.** What about the remaining activity at 1.25 µM ([2]; Well no.=2355) of the same compound?
**A.** 101%

**Q.** With `CN[C@@H](C)C(=O)N[C@H](C(=O)N1CCC[C@H]1C(=O)Nc1snnc1-c1ccccc1)C1CCCCC1` [GDC-0152] as the compound, how does the remaining activity at 3.75 µM ([1]; Well no.=6692) read?
**A.** 95.6%

**Q.** And the remaining activity at 1.25 µM ([2]; Well no.=6692)?
**A.** 103%

**Q.** Which results are given for `O=C(Nc1ccc(O)cc1)c1ccccc1O` [Osalmid]?
**A.** remaining activity at 3.75 µM ([1]; Well no.=8152): 100%; remaining activity at 1.25 µM ([2]; Well no.=8152): 100%

**Q.** For `CCCCCN(C)CCC(O)(P(=O)(O)O)P(=O)(O)O` [Ibandronate], which remaining activity at 3.75 µM ([1]; Well no.=1933) is on record?
**A.** 102%

**Q.** And the remaining activity at 1.25 µM ([2]; Well no.=1933)?
**A.** 107%

**Q.** With `c1ccc2c(CC3=NCCN3)cccc2c1` [Naphazoline] as the compound, how does the remaining activity at 3.75 µM ([1]; Well no.=2007) read?
**A.** 103%

**Q.** What about the remaining activity at 1.25 µM ([2]; Well no.=2007) of the same compound?
**A.** 105%

**Q.** With `N=c1ccn2c(n1)O[C@H]1[C@H](O)[C@@H](CO)O[C@H]12` [Cyclocytidine] as the compound, how does the remaining activity at 3.75 µM ([1]; Well no.=1936) read?
**A.** 103%

**Q.** What about the remaining activity at 1.25 µM ([2]; Well no.=1936) of the same compound?
**A.** 96.5%

**Q.** `CN(C)CCC=C1c2ccccc2COc2ccccc21` [Doxepin hydrochloride] was tested. Which remaining activity at 3.75 µM ([1]; Well no.=451) did it give?
**A.** 102%

**Q.** What about the remaining activity at 1.25 µM ([2]; Well no.=451) of the same compound?
**A.** 105%

**Q.** How did the remaining activity at 3.75 µM ([1]; Well no.=668) turn out when `O=Nc1c(-c2c(O)[nH]c3ccccc23)[nH]c2ccccc12` [Indirubin-3'-oxime] was run?
**A.** 92.9%

**Q.** What about the remaining activity at 1.25 µM ([2]; Well no.=668) of the same compound?
**A.** 95.2%

**Q.** How did the remaining activity at 3.75 µM ([1]; Well no.=6951) turn out when `COc1ccc(-c2cccc(C(=O)N(C)C)c2)cc1S(=O)(=O)Nc1cccc(NCCNC(=O)c2cccc(C)c2)c1` [Orexin 2 Receptor Agonist] was run?
**A.** 103%

**Q.** And the remaining activity at 1.25 µM ([2]; Well no.=6951)?
**A.** 105%

**Q.** `O=C(Oc1ccc([N+](=O)[O-])cc1)N1CCN(Cc2cccc(Oc3ccccc3)c2)CC1` [JZL195] was tested. Which remaining activity at 3.75 µM ([1]; Well no.=5512) did it give?
**A.** 108%

**Q.** What about the remaining activity at 1.25 µM ([2]; Well no.=5512) of the same compound?
**A.** 107%

**Q.** For `Cc1cc(C)nc(NS(=O)(=O)c2ccc(N)cc2)n1` [Sulfamethazine], which remaining activity at 3.75 µM ([1]; Well no.=4940) is on record?
**A.** 95.8%

**Q.** What about the remaining activity at 3.75 µM ([1]; Well no.=7456) of the same compound?
**A.** 99.2%

**Q.** What about the remaining activity at 1.25 µM ([2]; Well no.=4940) of the same compound?
**A.** 96.7%

**Q.** What about the remaining activity at 1.25 µM ([2]; Well no.=7456) of the same compound?
**A.** 99.7%

**Q.** Which results are given for `Cc1cc(NC(=O)Nc2ccc(N(C)C)cc2)c2cc(F)cc(F)c2n1` [SB-408124]?
**A.** remaining activity at 3.75 µM ([1]; Well no.=4955): 94.9%; remaining activity at 3.75 µM ([1]; Well no.=8481): 102%; remaining activity at 1.25 µM ([2]; Well no.=4955): 90.2%; remaining activity at 1.25 µM ([2]; Well no.=8481): 104%

**Q.** For `CC(C)[C@@]1(NC(=O)[C@@H]2C[C@@H]3c4cccc5[nH]cc(c45)C[C@H]3N(C)C2)O[C@@]2(O)[C@@H]3CCCN3C(=O)[C@H](Cc3ccccc3)N2C1=O` [Dihydroergocristine], which remaining activity at 3.75 µM ([1]; Well no.=2098) is on record?
**A.** 102%

**Q.** What about the remaining activity at 1.25 µM ([2]; Well no.=2098) of the same compound?
**A.** 104%

**Q.** Which remaining activity at 3.75 µM ([1]; Well no.=7500) does the source give for `Nc1nc2[nH]cc(CCc3ccc(C(=O)N[C@@H](CCC(=O)O)C(=O)O)cc3)c2c(=O)[nH]1` [Pemetrexed (disodium)] here?
**A.** 93.5%

**Q.** And the remaining activity at 1.25 µM ([2]; Well no.=7500)?
**A.** 102%

**Q.** How did the remaining activity at 3.75 µM ([1]; Well no.=1299) turn out when `O=C(O)CP(=O)(O)O` [Phosphonoacetic acid] was run?
**A.** 103%

**Q.** And the remaining activity at 1.25 µM ([2]; Well no.=1299)?
**A.** 101%

**Q.** Which remaining activity at 3.75 µM ([1]; Well no.=2322) does the source give for `CC(C)[C@H](CO)Nc1nc(Nc2cc(N)cc(Cl)c2)c2ncn(C(C)C)c2n1` [Aminopurvalanol A] here?
**A.** 97.4%

**Q.** And the remaining activity at 1.25 µM ([2]; Well no.=2322)?
**A.** 97.1%

**Q.** For `O=C(O)CNC(=O)c1c(O)c2ccccc2n(Cc2ccccc2)c1=O` [IOX2], which remaining activity at 3.75 µM ([1]; Well no.=5227) is on record?
**A.** 95.1%

**Q.** What about the remaining activity at 1.25 µM ([2]; Well no.=5227) of the same compound?
**A.** 101%

**Q.** What does the source list for `Cn1c(=O)ccn([C@@H]2O[C@H](CO)[C@@H](O)[C@H]2O)c1=O` [3-Methyluridine]?
**A.** remaining activity at 3.75 µM ([1]; Well no.=7067): 91.5%; remaining activity at 3.75 µM ([1]; Well no.=7918): 101%; remaining activity at 1.25 µM ([2]; Well no.=7067): 93.2%; remaining activity at 1.25 µM ([2]; Well no.=7918): 101%
